In PubChem BioAssay (NCI):
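A five-concentration, 48-hour dose response in 96-well plates underlies each endpoint, interpolated linearly between surrounding concentrations. At the GI50, growth is halved. TGI is the concentration that stops growth completely.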

Columns and labels:
Assay in all cases: DTP human tumour cell line panel, 48 h
[1] = tested on: SK-MEL-2 melanoma
[2] = tested on: MDA-N
[3] = tested on: NCI-H460 lung
[4] = tested on: 786-0 renal
[5] = tested on: T-47D breast
[6] = tested on: OVCAR-3 ovarian
[7] = tested on: U251 CNS
[8] = tested on: EKVX NSCLC
[9] = tested on: SF-268 CNS
[10] = tested on: MDA-MB-231 breast
[11] = tested on: SR leukemia

| SMILES | TGI [1] [µM] | TGI [2] [µM] | TGI [3] [µM] | TGI [4] [µM] | TGI [5] [µM] | TGI [6] [µM] | TGI [7] [µM] | TGI [8] [µM] | TGI [9] [µM] | TGI [10] [µM] | TGI [11] [µM] | GI50 [1] [µM] | GI50 [10] [µM] | GI50 [3] [µM] | GI50 [5] [µM] | GI50 [6] [µM] | GI50 [7] [µM] | GI50 [8] [µM] | GI50 [11] [µM] | GI50 [9] [µM] |
| --- | --- | --- | --- | --- | --- | --- | --- | --- | --- | --- | --- | --- | --- | --- | --- | --- | --- | --- | --- | --- |
| COC(=O)CCC1(CCC(=O)OC)CCCCCCC(CCC(=O)OC)(CCC(=O)OC)C(=O)C1=O | > 100 | > 100 | > 100 | > 100 | > 100 | > 100 | > 100 | > 100 | > 100 | – | – | – | – | – | – | – | – | – | – | – |
| CCOP(=O)(OCC)/C(C#N)=C/c1ccccn1 | – | > 100 | > 100 | > 100 | > 100 | > 100 | > 100 | > 100 | > 100 | > 100 | > 100 | – | – | – | – | – | – | – | – | – |
| O=c1[nH]nc(-c2ccccc2)n1/N=C/c1cccc([N+](=O)[O-])c1 | > 100 | – | > 100 | > 100 | > 100 | > 100 | > 100 | > 100 | > 100 | > 100 | > 100 | – | – | – | – | – | – | – | – | – |
| Cn1c(=Nc2ccc(Cl)cc2)sc2ccccc21 | > 100 | – | > 100 | > 100 | > 100 | – | > 100 | > 100 | > 100 | > 100 | > 100 | – | – | – | – | – | – | – | – | – |
| O=C(c1ccccc1)N1C(=O)N(c2ccccc2)C(=Nc2ccccc2)C1=Nc1ccccc1 | > 100 | > 100 | > 100 | > 100 | > 100 | – | > 100 | > 100 | > 100 | > 100 | > 100 | – | – | – | – | – | – | – | – | – |
| CC(=O)O[C@H]1CC[C@@]2(C)C(=CC[C@@H]3[C@@H]2CC[C@]2(C)c4c(n[nH]c4C)C[C@@H]32)C1 | – | 46.6 | 32.4 | 35.1 | 25 | 26.2 | 31.3 | 34.7 | 48.7 | 38.4 | 58.7 | – | – | – | – | – | – | – | – | – |
| COc1ccc(-c2oc3cc(OC)c(OC)c(O)c3c(=O)c2OC)cc1 | > 100 | > 100 | > 100 | 68.2 | > 100 | – | > 100 | > 100 | 98.4 | 50 | > 100 | – | – | – | – | – | – | – | – | – |
| O=C(O)c1nc2ccc(C(F)(F)F)cc2nc1Nc1ccc(Cl)c(Cl)c1 | 11.2 | 25.3 | 20.8 | 23.7 | – | 23.9 | 14.7 | 22.8 | 21.9 | 26.7 | 14 | – | – | – | – | – | – | – | – | – |
| Cc1ccc(S(=O)C[C@](NC(=O)OCc2ccccc2)(Sc2ccccc2)C(F)F)cc1 (some centres not stated) | 71.6 | – | 42.2 | 29.2 | 40 | 66.1 | 35.5 | 29.3 | 63.4 | 52.4 | 30.7 | – | – | – | – | – | – | – | – | – |
| Cc1cccc2oc3c(c(=O)c12)CC(O)C(C)(C)O3 (configuration not stated) | > 100 | > 100 | > 100 | > 100 | > 100 | > 100 | > 100 | > 100 | > 100 | – | > 100 | – | – | – | – | – | – | – | – | – |
| c1ccc2cc3c(NC4=NCCO4)cccc3cc2c1 | > 100 | 3.57 | > 100 | > 100 | – | > 100 | > 100 | > 100 | > 100 | > 100 | > 100 | – | – | – | – | – | – | – | – | – |
| CN=C(Nc1ccc(OC)c2ccccc12)SC | – | > 10 | – | > 10 | > 10 | > 10 | > 10 | – | > 10 | > 10 | > 10 | – | – | – | – | – | – | – | – | – |
| O=C(c1cccs1)c1nccc2c1cnc1ccccc12 | > 100 | – | > 100 | > 100 | > 100 | > 100 | > 100 | > 100 | 98.6 | > 100 | > 100 | – | – | – | – | – | – | – | – | – |
| Cc1ccc(/C=C2\NC(=S)NC2=O)cc1 | > 100 | > 100 | – | > 100 | > 100 | > 100 | > 100 | > 100 | > 100 | > 100 | – | – | – | – | – | – | – | – | – | – |
| O=c1[nH]ncc2[nH]c3c4ccccc4ccc3c12 | – | > 100 | > 100 | > 100 | > 100 | > 100 | 90.7 | > 100 | > 100 | – | > 100 | – | – | – | – | – | – | – | – | – |
| CCOC(=O)c1cn2c(n1)sc1cc(OC)ccc12 | > 100 | > 22.6 | > 100 | > 100 | – | > 44.8 | 21.9 | > 100 | > 100 | > 100 | – | – | – | – | – | – | – | – | – | – |
| Nc1ccc(-c2nc3ccc(F)cc3s2)cc1Cl | > 100 | > 100 | – | > 100 | – | > 100 | > 100 | > 100 | > 100 | 99.5 | > 100 | – | – | – | – | – | – | – | – | – |
| Clc1ccc(-c2cc(-c3cc4cc(Br)ccc4nc3Cl)on2)cc1 | 21.9 | 30.6 | 22.6 | > 50 | > 50 | 30.7 | – | 36.2 | 28.6 | – | > 50 | – | – | – | – | – | – | – | – | – |
| CC1(C)CO[P@@](=S)(c2ccccn2)O[C@@H]1c1ccccc1 | – | > 100 | > 100 | > 100 | > 100 | > 100 | > 100 | > 100 | > 100 | > 100 | > 100 | – | – | – | – | – | – | – | – | – |
| Cc1cn(-c2cccc(NC(=O)c3ccc(C)c(Nc4nccc(-c5cccnc5)n4)c3)c2)cn1 | 7.83 | – | 4.05 | – | 9.6 | 3.84 | 3.39 | 6 | 9.58 | 3.46 | 5.02 | 2.58 | 1.63 | 1.97 | 1.42 | 1.95 | 1.69 | 2.16 | 2.08 | 2.92 |
| CC(C)(C)OC(=O)N1NC(c2ccccc2)CC1c1ccccc1 (configuration not stated) | – | > 100 | > 100 | > 100 | 56.2 | > 100 | – | > 100 | > 100 | – | > 100 | – | – | – | – | – | – | – | – | – |
| COc1cc(C(=O)Oc2c(C(C)=O)sc3c2c(=O)n(-c2ccccc2)c(=S)n3-c2ccccc2)cc(OC)c1OC | – | 57 | 29.8 | 55.2 | 99.6 | 62.2 | 77.8 | 40.8 | 77.4 | 88.8 | > 100 | – | – | – | – | – | – | – | – | – |
